This is an account of results in patent publication US20230150974A1 (Foghorn Therapeutics Inc., priority 2020, published 2023).

The target in assay [1] is T1, HiBiT-BRM (Homo sapiens, UniProt P51531).
T1 construct: expressed in transfected cells
As to the kind of experiment: HiBiT-BRM cell-based degradation assay (Nano-Glo HiBiT Lytic Detection). The following applies: HeLa cells expressing HiBiT-BRM, 24 h; for DC50: read-out: BRM HiBit Degradation IC50. The gist of the method: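 HeLa cells stably expressing HiBiT-tagged BRM were treated for 24 h, then lysed with LgBiT-containing Nano-Glo reagent and luminescence read. % degradation scaled between DMSO (high control) and 2 μM reference BRM/BRG1 degrader (low control).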
(In general: HiBiT is a short tag that completes a luciferase, so light tracks the accessible tagged protein.)

Assay [2] has as its target T2, HiBit-BRG1 (Homo sapiens, UniProt P51532).
T2 construct: expressed in transfected cells
Description: HiBit-BRG1 cell-based degradation assay (Nano-Glo HiBiT Lytic Detection). To be noted: HeLa cells expressing HiBit-BRG1 and LgBit, 24 h; for DC50: read-out: BRG1 HiBit Degradation IC50; for Dmax: read-out: BRG1 HiBit Degradation Maximum (%). In a few lines: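 Stable HeLa line co-expressing HiBit-BRG1 and LgBit, 5000 cells/well, treated 24 h in a tissue culture incubator. Lysed with Nano-Glo HiBiT lytic reagent, luminescence read. % degradation normalized to DMSO (high control) and 2 μM reference BRM/BRG1 degrader (low control).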

T1 sequence (P51531 whole entry): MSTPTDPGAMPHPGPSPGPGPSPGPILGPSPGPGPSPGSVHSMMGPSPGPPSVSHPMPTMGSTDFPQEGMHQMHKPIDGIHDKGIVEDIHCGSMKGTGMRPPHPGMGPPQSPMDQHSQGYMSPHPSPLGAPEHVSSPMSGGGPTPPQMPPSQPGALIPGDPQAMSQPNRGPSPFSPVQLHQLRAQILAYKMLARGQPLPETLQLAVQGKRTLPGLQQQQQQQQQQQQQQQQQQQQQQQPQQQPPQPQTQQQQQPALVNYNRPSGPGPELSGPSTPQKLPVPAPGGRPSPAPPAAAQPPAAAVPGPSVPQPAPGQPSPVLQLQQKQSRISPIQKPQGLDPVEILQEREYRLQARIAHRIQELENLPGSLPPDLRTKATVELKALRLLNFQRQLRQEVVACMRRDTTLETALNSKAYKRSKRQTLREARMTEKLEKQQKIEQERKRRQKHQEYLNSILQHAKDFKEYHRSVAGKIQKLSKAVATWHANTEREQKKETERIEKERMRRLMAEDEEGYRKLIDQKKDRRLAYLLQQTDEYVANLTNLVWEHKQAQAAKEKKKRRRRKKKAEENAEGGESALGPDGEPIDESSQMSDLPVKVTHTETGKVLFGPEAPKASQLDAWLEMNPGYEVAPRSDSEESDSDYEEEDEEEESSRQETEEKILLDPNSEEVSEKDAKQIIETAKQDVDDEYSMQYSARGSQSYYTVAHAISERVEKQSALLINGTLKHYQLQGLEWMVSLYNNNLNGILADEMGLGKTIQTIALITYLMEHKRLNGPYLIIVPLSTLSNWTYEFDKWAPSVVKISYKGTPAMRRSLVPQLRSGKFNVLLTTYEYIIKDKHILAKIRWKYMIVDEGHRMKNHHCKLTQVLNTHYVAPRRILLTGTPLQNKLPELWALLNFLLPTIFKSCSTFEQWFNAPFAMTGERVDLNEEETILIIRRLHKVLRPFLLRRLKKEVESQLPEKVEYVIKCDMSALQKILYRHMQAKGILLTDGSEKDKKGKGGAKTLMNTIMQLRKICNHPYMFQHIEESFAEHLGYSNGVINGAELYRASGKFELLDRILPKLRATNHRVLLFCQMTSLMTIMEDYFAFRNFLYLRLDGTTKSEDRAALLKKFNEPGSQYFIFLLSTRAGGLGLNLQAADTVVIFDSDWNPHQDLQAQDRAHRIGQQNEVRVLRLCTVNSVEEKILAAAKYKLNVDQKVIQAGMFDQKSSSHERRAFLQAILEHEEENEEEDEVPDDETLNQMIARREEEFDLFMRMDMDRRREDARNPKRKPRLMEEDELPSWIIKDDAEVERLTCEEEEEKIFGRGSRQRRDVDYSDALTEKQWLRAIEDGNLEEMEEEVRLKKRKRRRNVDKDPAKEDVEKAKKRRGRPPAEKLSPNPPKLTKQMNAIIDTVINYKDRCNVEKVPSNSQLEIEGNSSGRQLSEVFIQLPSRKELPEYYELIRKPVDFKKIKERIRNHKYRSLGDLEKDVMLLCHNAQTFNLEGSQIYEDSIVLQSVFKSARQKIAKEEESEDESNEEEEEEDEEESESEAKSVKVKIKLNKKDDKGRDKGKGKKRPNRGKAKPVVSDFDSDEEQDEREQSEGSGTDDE
T2 sequence (P51532 whole entry): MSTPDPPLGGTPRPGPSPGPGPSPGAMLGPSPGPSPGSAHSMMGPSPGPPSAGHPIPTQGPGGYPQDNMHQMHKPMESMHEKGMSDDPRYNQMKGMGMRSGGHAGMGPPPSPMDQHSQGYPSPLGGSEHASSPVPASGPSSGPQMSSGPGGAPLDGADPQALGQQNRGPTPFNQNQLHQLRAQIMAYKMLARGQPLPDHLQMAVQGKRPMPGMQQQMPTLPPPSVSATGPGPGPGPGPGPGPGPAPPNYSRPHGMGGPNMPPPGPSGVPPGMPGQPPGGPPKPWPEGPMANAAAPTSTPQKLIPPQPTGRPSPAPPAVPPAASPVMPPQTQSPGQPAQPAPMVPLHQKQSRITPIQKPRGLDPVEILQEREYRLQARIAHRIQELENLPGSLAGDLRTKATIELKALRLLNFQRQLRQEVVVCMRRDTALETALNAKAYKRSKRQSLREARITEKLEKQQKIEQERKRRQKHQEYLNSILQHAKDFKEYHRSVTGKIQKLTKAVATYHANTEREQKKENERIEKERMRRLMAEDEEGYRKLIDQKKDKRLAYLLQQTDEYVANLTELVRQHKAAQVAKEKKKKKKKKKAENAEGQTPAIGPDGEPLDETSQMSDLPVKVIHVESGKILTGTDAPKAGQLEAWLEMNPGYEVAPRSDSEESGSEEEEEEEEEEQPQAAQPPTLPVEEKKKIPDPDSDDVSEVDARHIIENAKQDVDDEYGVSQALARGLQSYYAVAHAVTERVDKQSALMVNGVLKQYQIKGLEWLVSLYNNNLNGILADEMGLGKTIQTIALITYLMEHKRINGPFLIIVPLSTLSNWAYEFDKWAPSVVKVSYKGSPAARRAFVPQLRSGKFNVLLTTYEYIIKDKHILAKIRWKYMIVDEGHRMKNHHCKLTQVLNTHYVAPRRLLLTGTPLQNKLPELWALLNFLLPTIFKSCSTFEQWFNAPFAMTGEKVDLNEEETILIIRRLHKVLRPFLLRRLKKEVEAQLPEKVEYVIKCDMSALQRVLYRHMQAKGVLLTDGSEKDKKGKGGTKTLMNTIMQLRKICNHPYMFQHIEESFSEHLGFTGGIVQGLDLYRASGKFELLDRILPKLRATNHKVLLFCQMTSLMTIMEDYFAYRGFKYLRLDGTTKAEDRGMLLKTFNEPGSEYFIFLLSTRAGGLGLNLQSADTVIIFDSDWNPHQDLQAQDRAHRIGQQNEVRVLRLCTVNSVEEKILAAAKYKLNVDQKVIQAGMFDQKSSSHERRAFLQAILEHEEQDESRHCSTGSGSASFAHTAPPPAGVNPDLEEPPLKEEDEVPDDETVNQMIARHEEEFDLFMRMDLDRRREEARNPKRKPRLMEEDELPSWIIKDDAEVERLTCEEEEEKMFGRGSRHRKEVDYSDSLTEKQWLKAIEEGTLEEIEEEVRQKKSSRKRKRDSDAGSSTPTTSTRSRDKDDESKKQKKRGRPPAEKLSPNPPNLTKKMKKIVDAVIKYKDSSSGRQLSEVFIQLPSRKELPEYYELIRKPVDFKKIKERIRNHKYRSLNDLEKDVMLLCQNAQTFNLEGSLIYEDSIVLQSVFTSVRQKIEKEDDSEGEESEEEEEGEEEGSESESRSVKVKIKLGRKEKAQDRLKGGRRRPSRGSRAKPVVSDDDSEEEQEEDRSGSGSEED

As for `Nc1nnc(-c2ccccc2O)cc1OCCc1ccc(C(=O)NCCCCC(=O)NCc2ccc(S(=O)(=O)Nc3cccc4c(Cl)c[nH]c34)cc2)cc1` [Compound 15, 4-(2-((3-amino-6-(2-hydroxyphenyl)pyridazin-4-yl)oxy)ethyl)-N-(5-((4-(N-(3-chloro-1H-indol-7-yl)sulfamoyl)benzyl)amino)-5-oxopentyl)benzamide], in assay [1], the “BRM HiBit Degradation Maximum (%)” value is reported as “C (“C” indicates maximum degradation <50%)” and the DC50 is above 1000 nM. Also, in assay [2], the DC50 was above 1000 nM and the Dmax was below 50%.
On to `Cc1ncsc1-c1ccc(CNC(=O)[C@@H]2C[C@@H](O)CN2C(=O)[C@@H](NC(=O)CCN2CC(OC3CCN(C(=O)c4ccc(CCOc5cc(-c6ccccc6O)nnc5N)cc4)CC3)C2)C(C)(C)C)cc1` [Compound 238, (2S,4R)-1-((S)-2-(3-(3-((1-(4-(2-((3-amino-6-(2-hydroxyphenyl)pyridazin-4-yl)oxy)ethyl)benzoyl)piperidin-4-yl)oxy)azetidin-1-yl)propanamido)-3,3-dimethylbutanoyl)-4-hydroxy-N-(4-(4-methylthiazol-5-yl)benzyl)pyrrolidine-2-carboxamide], for which, in assay [1], the “BRM HiBit Degradation Maximum (%)” value is “C (“C” indicates maximum degradation <50%)” and the DC50 is above 1000 nM. Further, in assay [2], the DC50 is above 1000 nM and the Dmax was below 50%.
With `Nc1nnc(-c2ccccc2O)cc1OCCc1ccc(CNC(=O)CCOCCOCCNc2cccc3c2C(=O)N(C2CCC(=O)NC2=O)C3=O)cc1` (stereo not drawn) [Compound 74, N-(4-(2-((3-amino-6-(2-hydroxyphenyl)pyridazin-4-yl)oxy)ethyl)benzyl)-3-(2-(2-((2-(2,6-dioxopiperidin-3-yl)-1,3-dioxoisoindolin-4-yl)amino)ethoxy)ethoxy)propanamide], in assay [1], the “BRM HiBit Degradation Maximum (%)” value was “C (“C” indicates maximum degradation <50%)” and the DC50 is above 1000 nM. Besides, in assay [2], the DC50 is above 1000 nM and the Dmax is below 50%.
As to `Cc1ncsc1-c1ccc(CNC(=O)[C@@H]2C[C@@H](O)CN2C(=O)[C@@H](NC(=O)CCCCCCCCCCCCCCCC(=O)NCc2ccc(CCN(C)c3cc(-c4ccccc4O)nnc3N)cc2)C(C)(C)C)cc1` [Compound 133, N1-(4-(2-((3-amino-6-(2-hydroxyphenyl)pyridazin-4-yl)(methyl)amino)ethyl)benzyl)-N17-((S)-1-((2S,4R)-4-hydroxy-2-((4-(4-methylthiazol-5-yl)benzyl)carbamoyl)pyrrolidin-1-yl)-3,3-dimethyl-1-oxobutan-2-yl)heptadecanediamide], in assay [1], the “BRM HiBit Degradation Maximum (%)” value is reported as “B (“B” indicates maximum degradation ≥50%)” and the DC50 is above 100 nM. In assay [2], the DC50 was above 1000 nM and the Dmax was below 50%.
In the case of `Cc1ncsc1-c1ccc(CNC(=O)[C@@H]2C[C@@H](O)CN2C(=O)[C@@H](NC(=O)CN2CCN(CCOc3cc(N4[C@@H]5CC[C@H]4CN(c4cc(-c6ccccc6O)nnc4N)C5)ccn3)CC2)C(C)(C)C)cc1` [Compound 233, (2S,4R)-1-((2S)-2-(2-(4-(2-((4-(3-(3-amino-6-(2-hydroxyphenyl)pyridazin-4-yl)-3,8-diazabicyclo[3.2.1]octan-8-yl)pyridin-2-yl)oxy)ethyl)piperazin-1-yl)acetamido)-3,3-dimethylbutanoyl)-4-hydroxy-N-(4-(4-methylthiazol-5-yl)benzyl)pyrrolidine-2-carboxamide], in assay [1], the “BRM HiBit Degradation Maximum (%)” value is recorded as “A (“A” indicates maximum degradation ≥75%)” and the DC50 was above 10 nM. In assay [2], the DC50 is above 100 nM and the Dmax is above 75%.
For `Nc1nnc(-c2ccccc2O)cc1OCCc1ccc(CNC(=O)CCCCCCCCNc2cccc3c2C(=O)N(C2CCC(=O)NC2=O)C3=O)cc1` (stereo not drawn) [Compound 71, N-[[4-(2-[[3-amino-6-(2-hydroxyphenyl)pyridazin-4-yl]oxy]ethyl)phenyl]methyl]-9-[[2-(2,6-dioxopiperidin-3-yl)-1,3-dioxoisoindol-4-yl]amino]nonanamide], in that order: “C (“C” indicates maximum degradation <50%)”, above 1000 nM, above 1000 nM and below 50%.
